Source: patent publication US5114941A, “Pyrimidinedione derivative compounds, method for preparing same, and antiarrythmic agents containing same” (Mitsui Toatsu Chemicals, Incorporated, priority 1989, dated 1992)
Counter-ions that a name gives are not always drawn.

Columns and labels:
[1] = Toxicity test, mortality 24 hours after oral administration; conditions: mouse, in vivo, 300 mg/kg p.o., mice, 24 hours after administration, read-out: Mortality Rate (%)
Experimental: Each of the compounds prepared in the above-mentioned examples shown in Table 2 was administered into a mouse (ddy strain, male). In each case, the administration was effected by oral administration (p.o.) in a dose of 300 mg/kg.
A mortality rate (number of specimens: one group=2 to 4 mice) of the mice 24 hours after the administration was calculated, and the results are set forth in Table 2.

[2] = test system: ventricular muscle refractory period; experiment: Influence on ventricular muscle refractory period (ERP); type: in vivo, dog (mongrel adult dog); conditions: Canis lupus familiaris, iv, i.v., anesthetized dog, change vs before administration, read-out: ERP (%; extensibility of refractory period)
Experimental: (2) Influence on ventricular muscle refractory period:
Refractory periods were measured in the following manner before and after each of the compounds and d-sotalol shown in Table 1 was separately administered to a vein or a duodenum, and ERP (%; extensibility of refractory period) was calculated from the measured values in accordance with the following formula: […]
W: Refractory period after administration
Y: Refractory period before administration
To a mongrel adult dog, 30 mg/kg of pentobarbital was administered intravenously, and after being anesthetized, a pair of silver-silver chloride electrodes separated by 3 mm was sewn on an opened right ventricule, and electrical stimulation was given at an interval of 400 msec at a duration time of 4 msec under a current twice as much as the threshold. Afterward, a small amount of alcohol was injected into a sinus artery in order to extinguish a pacemaker activity, and the ventricular refractory period (ERP) was measured under ventricule pacing.
That is, 1 train comprised 10 stimulations, and an interval between two of the trains was usually 400 msec. At the time of the refractory period measurement, however, the above interval was shortened every 10 smec, and the interval between the trains at the time when reaction to the first stimulation of the train disappeared was regarded as the refractory period.
In this case, the electrical stimulation was fed in accordance with a program by a heart stimulation device (Diamedical Co., Ltd.; DHM-226-3).

[3] = test system: Purkinje fiber of the right ventricular free wall; experiment: Influence on myocardial action potential duration time (APD75), isolated right ventricular free wall; parameters: species or system dog (hybrid adult dog); conditions: Canis lupus familiaris, 20 min, 20 minutes' incubation; for APD75 prolongation (% change vs before administration) at 1 µg/mL: dose 1.0 μg/ml; for APD75 prolongation (% change vs before administration) at 3 µg/mL: dose 3.0 μg/ml; for APD75 prolongation (% change vs before administration) at 10 µg/mL: dose 10.0 μg/ml
Experimental: (1) Influence on myocardial action potential duration time (APD75): To a hybrid adult dog, 30 mg/kg of pentobarbital was administered through a vein, and after being anesthetized, the heart was removed. Afterward, the right ventricular free wall of the heart was cut and taken out in a Tyrode solution. […] In this isolated condition, myocardial action potential duration times (APD75) were measured before and after the administration of the respective compounds prepared in the above examples in Table 1 and d-sotalol as a control medicine, and APD75 (%) was calculated from the measured results in accordance with the formula: APD75 (%)=([…]75 before administration B: APD75 after administration Here, APD75 was measured as follows: […] This measured time was regarded as the myocardial action potential duration time (APD75). […] Incidentally, this test was carried out in accordance with a Sato et al's method [H. Sato, K. Hashimoto, Arzneimeittel Forschung, 34 (1), 3a, 376-380 (1984)].

| SMILES | mortality at 24 h [1] [%] | change in vivo at 0.1 mg/kg [2] [%] | change in vivo at 0.3 mg/kg [2] [%] | change in vivo at 1 mg/kg [2] [%] | change in vivo at 3 mg/kg [2] [%] | APD75 prolongation (% change vs before administration) at 1 µg/mL [3] [%] | APD75 prolongation (% change vs before administration) at 3 µg/mL [3] [%] | APD75 prolongation (% change vs before administration) at 10 µg/mL [3] [%] | APD75 prolongation (% change vs before administration) at 0.3 µg/mL ([3]; dose 0.3 μg/ml) [%] |
| --- | --- | --- | --- | --- | --- | --- | --- | --- | --- |
| Cc1coc2cccc(OCCCN3CCN(c4cc(=O)n(C)c(=O)n4C)CC3)c2c1=O [Compound 4, 1,3-dimethyl-6-(4-[3-(3-methyl-4-oxo-4H-1-benzopyran-5-yl)oxypropyl]piperazine-1-yl)-2,4(1H,3H)-pyrimidinedione hydrochloride] | 0 | 6.3 | 12.5 | 12.5 | 25 | 24 | 30 | – | – |
| Cc1oc2cccc(OCCCN3CCN(c4cc(=O)n(C)c(=O)n4C)CC3)c2c(=O)c1C [Compound 7, 1,3-dimethyl-6-(4-[3-(2,3-dimethyl-4-oxo-4H-1-benzopyran-5-yl)oxypropyl]piperazine-1-yl)-2,4(1H,3H)-pyrimidinedione oxalate] | 0 | 12 | 18 | 18 | 24 | 25 | 31 | – | – |
| CCN(CCCOc1cccc2occ(C)c(=O)c12)CCNc1cc(=O)n(C)c(=O)n1C [Compound 14, 1,3-dimethyl-6-(2-[N-ethyl-N-[3-(3-methyl-4-oxo-4H-1-benzopyran-5-yl)oxypropyl]amino[ethylamino)-2,4(1H,3H)-pyrimidinedione oxalate] | 0 | 6.8 | 6.8 | 10.7 | 13.6 | 4 | 17 | 25 | – |
| Cn1c(N2CCN(CCCOc3cccc4c3C(=O)CC(c3ccccc3)O4)CC2)cc(=O)n(C)c1=O (stereo not drawn) [Compound 21, 1,3-dimethyl-6-(4-[3-(2-phenyl-4-oxo-2,3-dihydro-4H-1-benzopyran-5-yl)oxypropyl]piperazine-1-yl)-2,4(1H,3H)-pyrimidinedione oxalate] | 0 | 0 | 0 | 0 | 7.7 | 12 | 16 | 20 | – |
| Cn1c(N2CCN(CCCOc3cccc4oc(-c5ccncc5)cc(=O)c34)CC2)cc(=O)n(C)c1=O [Compound 25, 1,3-dimethyl-6-(4-[3-[2-(pyridine-4-yl)-4-oxo-4H-1-benzopyran-5-yl]oxypropyl]piperazine-1-yl)-2,4(1H,3H)-pyrimidinedione dihydrochloride] | 0 | 6.3 | 6.7 | 12.5 | – | 7 | 19 | 27 | – |
| Cn1c(N2CCN(CCCOc3cccc4occc(=O)c34)CC2)cc(=O)n(C)c1=O [Compound 38, 1,3-Dimethyl-6-(4-[3-(4-oxo-4H-1-benzopyran-5-yl)oxypropyl]pyperazine-1-yl)-2,4(1H,3H)-pyrimidinedione hydrochloride] | 0 | 4.5 | 9.3 | 16 | 16 | 10 | 20 | 39 | – |
| Cn1c(N2CCN(CCCOc3cccc4oc(-c5ccccc5)cc(=O)c34)CC2)cc(=O)n(C)c1=O [Compound 39, 1,3-Dimethyl-6-(4-[3-(2-phenyl-4-oxo-4H-1-benzopyran-5-yl)oxypropyl]piperazine-1-yl)-2,4(1H,3H)-pyrimidinedione oxalate] | 0 | 7.1 | 14.3 | 14.3 | 14.3 | 7 | 20 | – | – |
| Cc1cc(=O)c2c(OCCCN3CCN(c4cc(=O)n(C)c(=O)n4C)CC3)cccc2o1 [Compound 40, 1,3-Dimethyl-6-(4-[3-(2-methyl-4-oxo-4H-1-benzopyran-5-yl)oxypropyl-piperazine-1-yl)-2,4(1H,3H)-pyrimidinedione hydrochloride] | 0 | 6.9 | 10.3 | 13.9 | 17.4 | 18 | 25 | 29 | – |
| Cn1c(N2CCN(CCCOc3ccc4c(=O)cc(-c5ccccc5)oc4c3)CC2)cc(=O)n(C)c1=O [Compound 48, 1,3-Dimethyl-6-(4-[3-(2-phenyl-4-oxo-4H-1-benzopyran-7-yl)oxypropyl]piperazine-1-yl)-2,4(1H,3H)-pyrimidinedione oxalate] | – | 0 | 0 | 6.9 | 20.4 | 7 | 12 | – | – |
| CCOC(=O)c1cc(=O)c2ccc(OCCCN3CCN(c4cc(=O)n(C)c(=O)n4C)CC3)cc2o1 [Compound 50, 1,3-Dimethyl-6-(4-[3-(2-ethoxycarbonyl-4-oxo-4H-1-benzopyran-7-yl)oxypropyl]piperazine-1-yl)-2,4-(1H,3H)-pyrimidinedione oxalate] | – | 0 | 0 | 0 | 6.3 | 7 | 14 | 28 | – |
| CC(C)NCC(O)c1ccc(NS(C)(=O)=O)cc1 (stereo not drawn) [d-sotalol, reference compound] | – | 1.7 | 6.7 | 8.7 | 15.5 | 3 | 7.4 | 15.8 | 0 |
